Measured values taken from patent publication US12629410B2, “Multi-antigenic peptide mimics of gonococcal lipo-oligosaccharide (LOS) epitopes” (priority 2019, dated 2026).
“Also recorded” adds a separate entry of the source. Read-outs that look alike come from different tables or passages of the source. Bridges are numbered along the chain shown (N, C = ends). Primed or numbered codes have the meaning given here. Where no end group is shown, it is not given here. [ ]: non-standard residue; d: D form. PEG2′ = two-unit polyethylene glycol spacer; PEG2″ = not defined here

Legend:
[1] = system: LOS purified from N. gonorrhoeae strain 15253; type: in vivo
mAb 2C7 = assay: Inhibition ELISA: inhibition of mAb 2C7 binding to immobilized gonococcal LOS; details: for comparative ability to inhibit mAb 2C7 binding to LOS (antigenicity): ranking within the set of peptides tested
Text: FIGS. 1A-1B show the structure and characterization of one of the peptide mimics described herein (also referred to as TMCP2). […] The 2C7 mimitope is indicated in shown as the sequence “H2C-CO-GPIPVLDENGLFAPGPC” (SEQ ID NO: 1) Cyclization is maintained through a thioether bond. The reverse peptide mimic core is represented the schematic of the peptide mimic as “Ac-β-Ala-Glu[Glu-OH]2.” The reverse peptide mimic core links to each cyclic peptide through a lysine (K) residue.
In order to compare antigenicity of peptide mimic Core Peptide 2 (monomeric cyclic CP2) and composite TMCP2 compounds with LOS that expresses the 2C7 epitope, inhibition ELISA was performed using mAb 2C7 reacted with the individual compounds to assess inhibition of binding (residual binding) of mAb to LOS by each compound. Microtiter wells were coated with LOS (80 μg/ml in PBS) purified from strain FA1090. Wells were washed and blocked with PBS-0.05% Tween 20. mAb 2C7 (0.04 μg/ml) either alone or containing monomeric cyclic peptide CP2 (1.07 to 1070 μM) or composite TMCP2 (concentrations ranging from […]) was dispended into LOS coated wells. Residual binding of 2C7 mAb was measured with anti-mouse IgG conjugated to alkaline phosphatase. Bound IgG was quantitated using a mouse IgG standard curve and percent inhibition determined compared to reaction mixtures that […].
Attempts to measure mAb 2C7 (7) binding directly to immobilized peptide mimic Core Peptide 2 (abbreviated CP2 in FIG. 1A) and composite TMCP2 by ELISA were not successful. The possibility of poor capture of the peptides by the microtiter wells was considered and therefore used an ELISA to measure inhibition of binding (residual binding) of mAb 2C7 to immobilized gonococcal LOS that had been reacted with increasing concentrations of the peptides (FIG. 1B).

[2] = earlier peptide constructs, FIG. 18 and FIG. 19

(CGPIPVLDENGLFAPGPC)4(Lys)2Lys-β-Ala-COOH [Tetra MAP 1.1]
immunogenicity in BALB/c mice (IgG against 2C7+ LOS by ELISA) ([1]; in vivo): Neither compound was superior; also recorded: elicited similar anti-LOS Ab levels as Tetra

(CH2-CO-GPIPVLDENGLFAPGPC)-K-OH ({CH2CO}-GPIPVLDENGLFAPGPCK-OH; thioether N-17; SMILES CC[C@H](C)[C@@H]1NC(=O)[C@@H]2CCCN2C(=O)CNC(=O)CSC[C@@H](C(=O)N[C@@H](CCCCN)C(=O)O)NC(=O)[C@@H]2CCCN2C(=O)CNC(=O)[C@@H]2CCCN2C(=O)[C@H](C)NC(=O)[C@H](Cc2ccccc2)NC(=O)[C@H](CC(C)C)NC(=O)CNC(=O)[C@H](CC(N)=O)NC(=O)[C@H](CCC(=O)O)NC(=O)[C@H](CC(=O)O)NC(=O)[C@H](CC(C)C)NC(=O)[C@H](C(C)C)NC(=O)[C@@H]2CCCN2C1=O) [CP2]
IC50 (mAb 2C7; mAb 2C7 0.04 μg/ml, LOS-coated wells, read-out: concentration giving 50% inhibition of mAb 2C7 binding to immobilized 15253 LOS): 107 µM

(KIPVLDENGLFAP-PEG2-KK)4-MAP4 [Tetra MAP 3.1]
immunogenicity in BALB/c mice (IgG against 2C7+ LOS by ELISA) ([1]; in vivo): poorly immunogenic

(KIPVLDENGLFAP-PEG2-KKC)4-Maleimide4-MAP4 (KIPVLDENGLFAP[PEG2″]KKC; also: four copies on a maleimide MAP4 core) [TetraMAP 3.2]
immunogenicity in BALB/c mice (IgG against 2C7+ LOS by ELISA) [1, 2]: poorly immunogenic

KIPVLDENGLFAP (SEQ ID NO: 3)-PEG2-KK (KIPVLDENGLFAP[PEG2′]KK) [Mod3]
comparative ability to inhibit mAb 2C7 binding to LOS (antigenicity) (mAb 2C7; listed as Mod 3): most antigenic

KIPVLDENGLFAP-D Lys-D Lys4-K2-K-MAP4 (not fully specified (C-terminus); also: four copies on a branched Lys (K2-K) MAP4 core) [TetraMAP 3.3]
immunogenicity in BALB/c mice (IgG against 2C7+ LOS by ELISA) [1, 2]: poorly immunogenic

KIPVLDENGLFAPAAAGGKIPVLDENGLFAP [Mod3 linear dimer #2]
immunogenicity in BALB/c mice (IgG against 2C7+ LOS by ELISA) ([1]; earlier peptide constructs, FIG. 18 and FIG. 19, listed as 16): non-immunogenic | immunogenicity in BALB/c mice (IgG against 2C7+ LOS by ELISA) ([1]; earlier peptide constructs, FIG. 18 and FIG. 19, listed as Mod3 linear dimer with AAAGG (SEQ ID NO: 5) linker): neither were immunogenic | comparative ability to inhibit mAb 2C7 binding to LOS (antigenicity) (mAb 2C7; listed as Mod3 linear dimer with AAAGG (SEQ ID NO: 5) linker): better than the molecule with the AG linker

KIPVLDENGLFAPGPC-D Lys-D Lys4-K2-K-MAP4 (not fully specified (C-terminus); also: four copies on a branched Lys (K2-K) MAP4 core) [TetraMAP 3.4]
immunogenicity in BALB/c mice (IgG against 2C7+ LOS by ELISA) [1, 2]: poorly immunogenic

KIPVLDENGLFAPGSKIPVLDENGLFAP [Mod3 linear dimer #1]
immunogenicity in BALB/c mice (IgG against 2C7+ LOS by ELISA) ([1]; earlier peptide constructs, FIG. 18 and FIG. 19, listed as 15): non-immunogenic | immunogenicity in BALB/c mice (IgG against 2C7+ LOS by ELISA) ([1]; earlier peptide constructs, FIG. 18 and FIG. 19, listed as Mod3 linear dimer with GS linker): neither were immunogenic

SGPIPVLDENGLFAPGPC)4(Lys)2Lys-β-Ala-COOH [Tetra MAP 1.2]
immunogenicity in BALB/c mice (IgG against 2C7+ LOS by ELISA) ([1]; in vivo): Neither compound was superior

[Ac-(CGPIPVLDENGLFAPGPC)-K-OH]4 (Ac-CGPIPVLDENGLFAPGPCK-OH; disulfide 1-18; also: tetrameric reverse MAP core) [TMCP3, disulfide-cyclized peptides on reverse MAP core]
anti-LOS titers in immunization experiments ([1]; tetrapeptides 50 μg/dose plus Sigma MPL adjuvant, BALB/c, FIG. 10): higher anti-LOS titers than TMCP4 | comparative ability to inhibit mAb 2C7 binding to LOS (antigenicity) (mAb 2C7): bound best
